Paper doi:10.1101/2021.04.29.441652v1 (biorxiv, 2021)

Molecular target: human σ2 receptor (TMEM97) (Homo sapiens, UniProt Q5BJF2)
Test: biochemical
Type: Expi293 membranes
Details: read-out: % of control remaining

Chain of human σ2 receptor (TMEM97) (Q5BJF2 whole entry): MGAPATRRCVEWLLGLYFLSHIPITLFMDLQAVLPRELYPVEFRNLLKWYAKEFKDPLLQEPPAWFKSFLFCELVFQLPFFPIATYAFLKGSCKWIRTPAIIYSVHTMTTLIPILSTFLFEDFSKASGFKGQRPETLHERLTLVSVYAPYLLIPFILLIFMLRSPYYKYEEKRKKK

remaining activity at 1 µM [%] | Structure (SMILES)
111 | C[C@H](C(=O)NCC1CCCCC1)N1CCC[C@H](N2CCCC2=O)CC1 [ZINC000334024070]
60.9 | O=C1NCCC[C@@H]1N1CC[C@@H](c2cccc(Cl)c2)C1 [ZINC000336580930]
106 | C[C@H]1CN(CCN(C)C(=O)C(=O)NC2CCN(C)CC2)C[C@H](C)O1 [ZINC000339640280]
50 | Cc1ccncc1N1CCN(C[C@H](O)CN2C[C@@H](C)O[C@H](C)C2)CC1 [ZINC000340106708]
103 | Cc1cnc(CN[C@@H](CO)CCC(C)(C)C)n1C [ZINC000341348768]
118 | COCCN1CCC(NC(=O)C(=O)N[C@H]2CCOC(C)(C)C2)CC1 [ZINC000343016571]
90.8 | C[C@@H]1OCC[C@]1(C)NC(=O)CCc1nc2c(O)nc(=O)n(C)c2[nH]1 [ZINC000345525893]
71.7 | CC[C@H](NC(=O)C(=O)N(CC)CCCN1CCCC1)[C@@H]1CCCO1 [ZINC000345970626]
108 | COC(=O)[C@@H]1CCN([C@H](C)C(=O)NCc2ccccc2C)[C@@H]1C [ZINC000347007006]
105 | CN(C/C=C\c1ccc(F)c(F)c1)[C@@H]1COC[C@@H]1O [ZINC000348635286]
142 | C[C@@H]1CCN2C(=O)N(CCCN3CCC[C@@H](C(N)=O)C3)C(=O)[C@H]2C1 [ZINC000349353698]
43 | N#Cc1ccc(N2CCN(C[C@H](O)CC3CCCC3)CC2)c(F)c1 [ZINC000352856249]
13.2 | Cc1cc(CN2CC[C@H]2Cc2ccccc2)ccc1-n1cncn1 [ZINC000353995714]
102 | CN1CC[C@](O)(CNC(=O)c2cc3cc([N+](=O)[O-])ccc3s2)C1 [ZINC000358051108]
102 | CN1CC[C@](O)(CNC(=O)c2ccc([N+](=O)[O-])c3cccnc23)C1 [ZINC000358062278]
113 | CCc1ccnc(CNC(=O)C(=O)N[C@@H]2C[C@H](C)N(C3CC3)C2)c1 [ZINC000358071102]
52.1 | Cc1ccc([C@H](NC[C@@]2(O)CCN(C)C2)c2ccccc2)cc1 [ZINC000358253868]
99.8 | CC(C)N1C[C@H](NC(=O)c2ccn(Cc3ccccc3)c2)[C@@H](C)C1 [ZINC000359009035]
76.4 | Cc1nc2n(n1)CCN(C(=O)C(=O)N[C@@H]1CCO[C@@H](CC(C)C)C1)C2 [ZINC000361132106]

remaining activity at 1 µM [%] | Structure (SMILES)
27.8 | CCO[C@@H](CC(=O)N1CCCN(C2CCCC2)CC1)C1=CCCC1 [ZINC000362611503]
88.9 | CC(C)N1CCN([C@H]2CCN(C(=O)CC3(O)CCCCC3)C2)CC1 [ZINC000363920872]
110 | CN1CC[C@]2(CCN(C(=O)CN3C(=O)NC4(CCCC4)C3=O)C2)C1 [ZINC000366544782]
90.8 | Cc1ccccc1Cc1nnc(CN2C[C@@H](N3CCCC3)C[C@H]2C)o1 [ZINC000367601434]
120 | CN1CCO[C@@H](CN(Cc2cnc(-c3cnn(C)c3)nc2)CC2CC2)C1 [ZINC000369129048]
112 | N#CC1(c2ccccn2)CCN([C@@H]2Cc3ccccc3[C@@H]2O)CC1 [ZINC000369205980]
82.1 | O=C1CCCCN1[C@@H]1CCCN(Cc2cc(-c3ccccc3)no2)C1 [ZINC000370893072]
98.9 | CN1CCC(C(=O)N2CCC[C@@H](c3nc4ccc(F)cc4o3)C2)CC1 [ZINC000370933962]
5.8 | Cc1cc(C)cc(NC(=O)[C@H](C)N2CC[C@@H](C3CCOCC3)C2)c1 [ZINC000374368469]
48.7 | C[C@@H](CO)N1CCCN([C@@H](C)C(=O)Nc2cccc(Cl)c2Cl)CC1 [ZINC000375486080]
84 | CC[C@H](c1ccccc1)N1CCC(C#N)(c2ccccn2)CC1 [ZINC000376738332]
100 | CS[C@H](CO)[C@@H](C)NC(=O)N[C@@H]1CCN(C2CCN(C)CC2)C1 [ZINC000377772869]
95.3 | NC(=O)c1ccccc1N1CC[C@H](NC(=O)CC2CCNCC2)C1 [ZINC000378210510]
54.1 | C[C@H](N[C@@H]1CCCc2c1[nH]c1ccccc21)[C@H]1CCCOC1 [ZINC000389015736]
14.6 | COc1ccc2cc(CN[C@](C)(CO)C(C)C)ccc2c1 [ZINC000398583627]
80.8 | CCc1cc(NC(=O)[C@@H]2CC[C@H](C3CC3)N2)ccc1C [ZINC000407281203]
120 | O=C(NC1CC1)C(=O)N1CCN(S(=O)(=O)C[C@@H]2CCCO2)CC1 [ZINC000407973885]
110 | O=C(c1cncc(N2CCOCC2)c1)N1CCN2C(=O)NC[C@@H]2C1 [ZINC000408001865]
103 | CN(Cc1cc(F)cc(F)c1)C(=O)C(=O)N1CC[C@H](N2CC=CC2)C1 [ZINC000410783840]

remaining activity at 1 µM [%] | Structure (SMILES)
88.6 | C[C@H](C(=O)NCc1ccc(F)cc1)N1C[C@H]2C[C@@H](O)CC[C@H]2C1 [ZINC000412048402]
62.9 | CC1CCN(C[C@H](O)CNc2nccc3ccc([N+](=O)[O-])cc23)CC1 [ZINC000413145325]
73.8 | O=C(NC[C@H]1CCCN1)Nc1cc(F)cc(F)c1Br [ZINC000415549177]
72.3 | Cc1cc([N+](=O)[O-])cc(C)c1S(=O)(=O)NC[C@H]1CCN(C)C1 [ZINC000416493836]
127 | C[C@H](N)[C@@H]1CCCCN1C(=O)NCc1cn2ccccc2n1 [ZINC000416873685]
96.2 | CC(C)(C(=O)N[C@@H]1CCCc2cc(N)ccc21)[C@H](N)c1ccccc1 [ZINC000417806012]
64.9 | Cc1cccc(C)c1OC[C@H](C)NC(=O)C(=O)NC[C@@H]1CCCNC1 [ZINC000418924570]
82.5 | CN(Cc1ccccc1)C(=O)CNC(=O)C(=O)N[C@H]1CCCNC1 [ZINC000419445843]
95.7 | CC[C@H]1CN(C(=O)C(=O)NCCCN2CCNCC2)CCS1 [ZINC000419873354]
94.1 | NC[C@@H](NC(=O)C(=O)NCCN1CCSCC1)C1CCCC1 [ZINC000420063417]
77.9 | CC(C)Sc1c(Cl)cccc1NC(=O)C(=O)N(C)C[C@H]1CCCN1C [ZINC000421295130]
96.4 | COc1ccc(Oc2ccc([N+](=O)[O-])cc2C(=O)N(C)C[C@H]2CCCN2C)cc1 [ZINC000421699823]
76.1 | CCC[C@@H](C(=O)N(C)C[C@H]1CCCN1C)c1ccccc1 [ZINC000421701270]
94.6 | CC(C)CSc1ccc([N+](=O)[O-])cc1C(=O)N(C)C[C@H]1CCCN1C [ZINC000421710394]
81.8 | CC(C)Sc1ccc([N+](=O)[O-])cc1C(=O)N(C)C[C@H]1CCCN1C [ZINC000421710406]
129 | COC(=O)[C@@]1(C)CCCN(C(=O)C(=O)N[C@@H](C)Cc2ccncc2)C1 [ZINC000422349618]
95.6 | C[C@H](c1ccccc1Br)N(C)C(=O)C[C@@H]1CCCN1 [ZINC000423867812]
36.3 | O[C@H](COC(c1ccccc1)c1ccccc1)CN1CC[C@@H]2CCC[C@H]21 [ZINC000426471156]
